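Test compounds were applied to cells in 96-well plates for 48 hours at 5 doses. GI50 is the concentration that inhibits growth by half.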 The source made the active and inactive calls. No stated cut-off is given here; in the data, active = GI50 up to about 1.1 µM and inactive = higher.
Columns and labels:
Assay in all cases: NCI tumour cell line growth inhibition, 48 h
HCC 2998 = system: HCC 2998
SK-MEL-5 = system: SK-MEL-5
RXF 393 = system: RXF 393
TK-10 = system: TK-10
786-0 = system: 786-0
A549 = system: A549
LOX IMVI = system: LOX IMVI
SK-MEL-28 = system: SK-MEL-28
HCT-116 = system: HCT-116
SF-539 = system: SF-539
HT-29 = system: HT-29
SN12C = system: SN12C
Malme-3M = system: Malme-3M
OVCAR-8 = system: OVCAR-8
NCI-H226 = system: NCI-H226
MDA-MB-435 = system: MDA-MB-435
NCI-H23 = system: NCI-H23
EKVX = system: EKVX
OVCAR-5 = system: OVCAR-5
SF-295 = system: SF-295

Measured: GI50

CC(=O)Oc1c2oc3cc(O)c(O)cc3c2c(OC(C)=O)c2oc3cc(O)c(O)cc3c12 [POLYOZELLIN]
inactive: HCC 2998 16.9 µM | SK-MEL-5 18.6 µM | RXF 393 18.1 µM | TK-10 18.9 µM | 786-0 25.2 µM | A549 35 µM | LOX IMVI 24.5 µM | SK-MEL-28 21.1 µM | HCT-116 18.7 µM | SF-539 23 µM | HT-29 26.4 µM | SN12C 20.9 µM | Malme-3M 17.1 µM | OVCAR-8 20.2 µM | NCI-H226 19.2 µM | MDA-MB-435 1.82 µM | NCI-H23 2.39 µM | EKVX 20.6 µM | OVCAR-5 25.5 µM | SF-295 16.7 µM

Source: ChEMBL document CHEMBL1201862, “PubChem BioAssay data set” (2004)
